Data from patent US12662688B2, “Site-selective deuteration of amino acids through dual protein catalysis” (Wisconsin Alumni Research Foundation, priority 2022, dated 2026).

What was measured:
DsaD/E complex [1] = assay: Preparative-scale Cα/Cβ-deuteration with DsaD and DsaE clarified lysates in D2O; type: biochemical, Streptomyces scopuliridis
Description: (§1) FIG. 5. ^1H NMR analysis of site-selective deuteration of L-Leu. Reaction conditions: 20 mM L-Leu 2.5% v/v DsaD clarified lysate, 2.5% v/v DsaE clarified lysate (when needed), 50 mM sodium phosphate (pD 8.4), 0.1 mM PLP, D2O (99.9% D).
(§2) FIG. 8. Preparative-scale and site-selective deuteration of amino acids. Conditions: 10-20 mM amino acid, 2.5% v/v DsaD clarified lysate, 2.5% v/v DsaE clarified lysate, 50 mM sodium phosphate (pD 8.4), 0.1 mM PLP, D2O (99.9%).
(§3) General procedure for milligram-scale biocatalytic deuteration: A 4-dram scintillation vial was charged with amino acid (10-20 mM final concentration), Na3PO4 buffer pD 8.4 (50 mM final concentration), PLP (100 μM final concentration), DsaD clarified cell lysate (2.5% v/v), DsaE clarified cell lysate (if applicable) (2.5% v/v), and D2O (or dH2O) to the appropriate final volume. The reaction vessel was placed in an incubator at 37° C. for 16 h. Reaction progress was monitored by UPLC-MS. After reaction completion, the reaction mixture was quenched with an equivalent volume of acetone and centrifuged (4,000 rpm, 10 min) to remove denatured protein. Supernatant was transferred to a clean beaker, the decanted supernatant was concentrated to remove acetone by rotary evaporation and loaded onto a preparative reverse-phase C18 column pre-equilibrated with water. Purification was performed via gradient elution on an Isolera One Flash Purification system (Biotage). Fractions bearing product (confirmed by UPLC-MS sampling of fraction tubes) were pooled and dried by rotary evaporation. The product was then resuspended in a minimal quantity of water, transferred to a pre-weighed 20 mL vial, frozen, and lyophilized.

DsaD/E complex [2] = assay: Analytical-scale Cα/Cβ H/D exchange with purified DsaD and DsaE; type: biochemical, Streptomyces scopuliridis; details: 10 mM substrate, 5 μM DsaD, 50 μM DsaE (10:1), 37° C., 8 h
Description: FIGS. 3A-3C. Optimization of H/D exchange reactions and evaluation of the substrate scope. FIG. 3A. Optimization of Cβ-deuteration by increasing equivalents of partner protein DsaE. FIG. 3B. Evaluation of substrate scope of dual-protein-catalyzed Cα/Cβ deuteration under optimized conditions. FIG. 3C. UV-visible spectroscopy used to evaluate non-native substrate binding to DsaD. Reaction conditions: 10 mM amino acid substrate, 50 μM DsaE, 5 μM DsaD (10:1), 50 mM sodium phosphate (pD 8.4), 0.1 mM PLP, D2O, 37° C., 8 h. Reactions performed in duplicate, and percentage isotope incorporation is reported as the average of the replicates.
General procedure analytical scale deuteration reactions: α/β deuteration reactions were performed as follows. A 1 mL Eppendorf tube was charged with amino acid (10-20 mM final concentration), Na3PO4 buffer pD 8.4 (50 mM final concentration), PLP (100 μM final concentration), purified enzymes or appropriate lysate and D2O and to the appropriate final volume (typically 50 μL). Reactions were carried out at 37° C. for 8 h and quenched by the addition of 3 volumes of acetonitrile. Precipitated biomolecules were pelleted by centrifugation (16,000×g, 10 min) and samples were processed as described below.
(§4) Marfey's derivatization of analytical scale reactions: Derivatization of the resulting analytical scale product mixture (to increase overall signal and enable reverse phase chromatographic analysis) was achieved by treatment with Marfey's reagent^2 (1-fluoro-2-4-dinitrophenyl-5-L-alanine amide, L-FDAA) using the following protocol. 25 μL of quenched reaction mix (final amine concentration, 1.6 mM) was added to an Eppendorf tube with 50 μL of 15 mM NaHCO3 (final concentration, 5 mM) and 75 μL of 5 mM L-FDAA (final concentration, 2.5 mM). Derivatization reactions were carried out for 10-12 h before quenching with 150 μL of 60 mM HCl dissolved in acetonitrile. Final reaction analysis was carried out by UPLC-DAD-MS and quantitation as described below.
(§5) Quantitation of deuteration in analytical scale reactions: Deuteration reactions were analyzed by UPLC-DAD-MS with single ion recording (SIR) channels set to record a spectrum with the appropriate isotopic mass in positive mode. The area under the curve of recorded SIR peaks was obtained and normalized to account for natural isotopic abundance distributions (e.g. ^13C, ^15N, ^2H, ^34S, etc). Percent deuterium incorporation was calculated by the formula below. These measurements were carried out in an iterative fashion to measure Cα deuteration and Cβ deuteration.

DsaD/E system = assay: Two-step Cα/Cβ deuteration then Cα deuterium washout with DsaD in H2O; type: biochemical, Streptomyces scopuliridis; details: lower substrate loading (10 mM), after Cα washout
Description: as §3
An initial reaction was performed with DsaD and DsaE to produce Cα,Cβ-deuterated L-Leu-2,3,3-d3 (25). Following reaction quenching with acetone, centrifugation to remove protein products, and removal of acetone and D2O via rotary evaporation, the dry crude product mixture was subjected to standard reaction conditions with DsaD in water. This reaction led to washout of the Cα deuterium, providing exclusively Cβ-deuterated L-Leu-3,3-d2 (44) with high levels of deuterium incorporation at Cβ (FIG. 5, 86% D incorporation and 98% ee). The site of H/D exchange in these reactions is dictated by the presence or absence of DsaE from the reaction conditions, enabling control of amino acid deuteration patterns.
We performed Cα/Cβ deuteration on a panel of amino acids, quenched the reactions and resubjected the crude product to Cα deuterium washout with DsaD in H2O. […]

DsaD/DsaE complex = DsaD/DsaE complex (Streptomyces scopuliridis, UniProt A0A0D5CCB2); assay: Steady-state kinetic analysis of H/D exchange of L-Ile by DsaD with partner protein DsaE; type: biochemical
Description: (§6) FIGS. 2A-2E. Steady-state kinetic analysis of H/D exchange by the Ile epimerization system. FIG. 2A. Steady-state kinetic analysis describing Cβ-deuteration^a of L-Ile under varied equivalents of partner enzyme DsaE. FIG. 2B. Steady-state kinetic analysis of Cβ-deuteration rates^a at a constant 1 mM L-Ile, measured against increasing equivalents of DsaE. FIG. 2C. Steady-state kinetic analysis of Cα-deuteration^a of L-Ile in the presence and absence of partner protein DsaE. FIG. 2D. Proposed mechanism of selective deuterium incorporation at Cα and Cβ catalyzed by dual protein catalysis. FIG. 2E. UV-visible spectrum of DsaD in the absence and presence of L-Ile.^a Measurement of initial rates was performed in duplicate at 24° C. Conditions: 0.1-10 mM L-Ile, 3 μM DsaD, 50 mM sodium phosphate (pD 8.4), and 0.1 mM PLP in D2O (99.9%). Proteins were exchanged into a 50 mM sodium phosphate-D2O (pD 8.4) solution prior to reaction initiation to minimize proton contamination (<1% H2O). Following quench with MeCN, crude reaction products were subjected to functionalization with Marfey's reagent (L-FDAA) to enable analysis by reverse-phase chromatography and quantification of isotope incorporation by mass spectrometry.
as §4, §5
Kinetic analysis of biocatalytic L-Ile deuteration: Initial rates of α- or β-deuteration were obtained by means of end-point assay using the quantitation protocol for analytical scale reactions as described above. All reagents were prepared in D2O (99.9% D) and protein stocks were dialyzed (3 exchanges over 3 h at 4° C.) into 50 mM sodium phosphate buffer dissolved in D2O (pD 8.4) using a slide-a-lyzer device with a 3,000 Da cutoff. Reactions were performed at 25° C. in 1 mL Eppendorf tubes. Michaelis constants (KM) for α- and β-deuteration of L-Ile were determined using the concentration range of 0.1-10 mM L-Ile using 3 μM DsaD. Partner protein (DsaE) concentrations were consistent within each experiment and separate experiments were performed using varied equivalents of partner protein (0-50 equiv). Initial velocities were measures in duplicate or triplicate for at least 6 different substrate concentrations for each set of conditions tested. Measurements of the impact of partner protein (DsaE) concentration on the initial rate of β-deuteration were carried out using 1 mM L-Ile, 3 μM DsaD and varying DsaE concentrations between 3 μM-600 μM (1-200 equiv). Under the minimal proton contamination conditions of this assay (99.9% D2O), Cα and Cβ deuteration are assumed to have occurred without back transfer to proton. The data were fit using the Michaelis-Menten equation implemented in Prism.

DsaD [3] = target: T1, DsaD (Streptomyces scopuliridis, UniProt A0A0D5CCB2); assay: H/D exchange of L-Ile with DsaD alone (steady-state kinetics); type: biochemical
Description: as §6, with “Conditions: 0.1-10 mM L-Ile, 3 μM DsaD, 50 mM sodium phosphate (pD 8.4), and 0.1 mM PLP in D2O (99.9%). Proteins were exchanged into a 50 mM sodium phosphate-D2O (pD 8.4) solution prior to reaction initiation to minimize proton contamination (<1% H2O).” left out
(§7) Kinetic analysis of biocatalytic L-Ile deuteration: Initial rates of α- or β-deuteration were obtained by means of end-point assay using the quantitation protocol for analytical scale reactions as described above. […] Michaelis constants (KM) for α- and β-deuteration of L-Ile were determined using the concentration range of 0.1-10 mM L-Ile using 3 μM DsaD. […]

DsaD [4] = target: T1, DsaD; assay: UV-vis spectroscopy of amino acid binding to DsaD; details: 20 μM DsaD, pH 8.0, 25° C.
Description: UV-Vis Spectroscopy: Data were collected between 600 and 300 nm on a UV-2600 Shimadzu spectrophotometer (Shimadzu, Kyoto, Japan) with a semi-micro quartz cuvette (Starna Cells, Atascadero, California, USA) at 25° C. DsaD stock solutions were diluted to 20 μM in 50 mM sodium phosphate pH 8.0. For observation of substrate binding, amino acids were added at concentrations ranging from 2.5-10 mM. Spectra from 600-300 nm were collected after a 2-minute incubation period. Amino acid stocks were prepared as 100 mM stocks in deionized water.

DsaD/E complex [5] = assay: Analytical-scale Cα/Cβ H/D exchange with purified DsaD and DsaE; type: biochemical, Streptomyces scopuliridis; details: 1 mM Ile, 0.05 mol % DsaD and DsaE (1:1), D2O, 37° C., 8 h
DsaD [6] = target: T1, DsaD; assay: Preparative-scale Cα-deuteration with DsaD clarified lysate in D2O; type: biochemical; details: DsaD lysate only
Description: as §1, §2
as §3, with “Supernatant was transferred to a clean beaker, the decanted supernatant was concentrated to remove acetone by rotary evaporation and loaded onto a preparative reverse-phase C18 column pre-equilibrated with water. Purification was performed via gradient elution on an Isolera One Flash Purification system (Biotage). Fractions bearing product (confirmed by UPLC-MS sampling of fraction tubes) were pooled and dried by rotary evaporation.” left out

[7] = substrate: CC[C@H](C)[C@H](N)C(=O)O; assay: H/D exchange of L-Ile with DsaD alone (steady-state kinetics); type: biochemical, Streptomyces scopuliridis; details: other: DsaD alone; pH 8.4
Description: as §6, with “Conditions: 0.1-10 mM L-Ile, 3 μM DsaD, 50 mM sodium phosphate (pD 8.4), and 0.1 mM PLP in D2O (99.9%). Proteins were exchanged into a 50 mM sodium phosphate-D2O (pD 8.4) solution prior to reaction initiation to minimize proton contamination (<1% H2O).” left out
as §7

[8] = lower substrate loading (10 mM)

DsaD/DsaE complex, sequence (A0A0D5CBB6 entry or part of it, one chain of several): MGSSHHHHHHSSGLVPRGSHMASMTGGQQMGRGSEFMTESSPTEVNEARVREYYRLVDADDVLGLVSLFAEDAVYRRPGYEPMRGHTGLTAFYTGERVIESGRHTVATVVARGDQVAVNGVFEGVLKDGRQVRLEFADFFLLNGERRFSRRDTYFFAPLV

Q: For `N[C@@H](Cc1ccc(O)cc1)C(=O)O` [Tyr, tyrosine], which “deuterium incorporation at Cα” value (DsaD/E complex [1]; [8]) is on record?
A: Its value is 95%.

Q: What about the “deuterium incorporation at Cβ” value (DsaD/E complex [1]; [8]) of the same molecule?
A: The value was 49%.

Q: And the “D-incorporation at Cα” value (DsaD/E complex [2])?
A: The value was 99%.

Q: What about the “D-incorporation at Cβ” value (DsaD/E complex [2]) of the same molecule?
A: The value was 27%.

Q: What about the “deuterium incorporation at Cβ” value (DsaD/E system) of the same molecule?
A: The value was 40%.

Q: What does the source list for `CC[C@H](C)[C@H](N)C(=O)O` [Ile, isoleucine]?
A: change of observed kcat or KM for Cα-deuteration (DsaD/DsaE complex; 150 μM DsaE (50:1 DsaE:DsaD)): did not significantly impact; change of kcat of Cβ-deuteration (DsaD/DsaE complex; 5 equiv. of DsaE (5:1 DsaE:DsaD) vs one equivalent): did not significantly change; decrease in observed KM of Cβ-deuteration (DsaD/DsaE complex; 5 equiv. vs one equivalent of DsaE): 11 fold; increase in kcat of Cβ-deuteration (DsaD/DsaE complex; 50 equiv. of DsaE (50:1 DsaE:DsaD)): ~4 fold; kcat of Cβ-deuteration (DsaD/DsaE complex; one equivalent of DsaE, 3 μM DsaD, D2O pD 8.4): 0.07 ± 0.007 s⁻¹; kcat of Cα-deuteration (DsaD/DsaE complex; with DsaE bound): 0.75 ± 0.01 s⁻¹; kcat of Cα exchange (DsaD [3]; DsaD alone): 1.04 ± 0.04 s⁻¹; H/D exchange with just DsaD (DsaD [3]; excluding partner protein DsaE): a single H/D exchange event; deuteration at Cα (DsaD/E complex [1]; >600 mg scale): 95%; deuteration at Cβ (DsaD/E complex [1]; >600 mg scale): 93%; substrate binding to DsaD by UV-vis (DsaD [4]): appearance of a new absorbance band at 328 nm; major product of H/D exchange (DsaD/E complex [5]): 1:1 mixture of d2-2,3-L-Ile and d2-2,3-L-allo-Ile

Q: With `N[C@@H](Cc1ccccc1)C(=O)O` [Phe, phenylalanine] as the molecule, how does the “D-incorporation at Cα” value (DsaD/E complex [2]) read?
A: Its value is “high Cα deuteration”.

Q: And the “D-incorporation at Cβ” value (DsaD/E complex [2])?
A: The value was 67%.

Q: What about the “deuterium incorporation at Cβ” value (DsaD/E system) of the same molecule?
A: The value was 91%.

Q: Which “D incorporation at Cα” value (DsaD [6]) does the source give for `[2H][C@](N)(CC(C)C)C(=O)O` [L-Leu-2-d] here?
A: The value was 95%.

Q: And the ee (DsaD [6])?
A: The ee was over 99 % ee.

B1: DsaD (Streptomyces scopuliridis) (protein)
chain: MGSSHHHHHHSSGLVPRGSHMASMTGGQQMGRGSEFMHIVTTPVARPLTAQERTERCAAPAFGTAFTEHMVSARWNPEQGWHDAELVPYGPLLLDPATVGLHYGQVVFEGLKAFRSHTGEVAVFRPDAHAERMRASARRLMMPEPPEELFLAAVDALVAQDQEWIPDDPGMSLYLRPILFASERTLALRPAREYRFLLVAFITEGYFGPAQRPVRVWVTDEYSRAAAGGTGAAKCAGNYAGSLLAQEEAQRKGCDQVVWLDPVERNWVEEMGGMNLFFVYEAGGSARLVTPPLTGSLLPGVTRDALLRLAPTLGVPVSEAPLSLEQWRADCASGAITEVFACGTAARISPVNEVSTKDGSWTIGAGAPAEGGVAAGEVTGRLSAALFGIQRGELPDSHSWMRPVSPARQSAIT
Q: For B1, which Km [7] is on record?
A: Its Km is 700 ± 100 µM.
